Results reported in US10077261B2, “Imidazolin-5-one derivative useful as FASN inhibitors for the treatment of cancer” (Janssen Pharmaceutica NV, priority 2012, dated 2018).

Target: T1, hFASN enzyme (full length) (Homo sapiens, UniProt P49327)
T1 construct: 10 μL hFASN enzyme (full length, 300 ng, purified in house); made in house
Test: Fatty Acid Synthase (FASN) inhibition scintillation proximity assay
Format: biochemical
Conditions: for inhibition at 10 µM: read-out: Human FASN % inhibition @ 10 μM, 10 μM test compound; for IC50: read-out: Human FASN pIC50 (converted)
Outline: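 Full-length in-house purified enzyme (300 ng) was tested in 100 mM KH2PO4 pH 7.5, 1 mM DTT with ³H-acetyl-CoA and malonyl-CoA as substrates; compounds ranged 0.01–30 μM. Reactions were stopped with streptavidin imaging beads, read by LEADseeker at 610 nm, and fitted to a 4-parameter logistic curve.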

T1 sequence (P49327 whole entry): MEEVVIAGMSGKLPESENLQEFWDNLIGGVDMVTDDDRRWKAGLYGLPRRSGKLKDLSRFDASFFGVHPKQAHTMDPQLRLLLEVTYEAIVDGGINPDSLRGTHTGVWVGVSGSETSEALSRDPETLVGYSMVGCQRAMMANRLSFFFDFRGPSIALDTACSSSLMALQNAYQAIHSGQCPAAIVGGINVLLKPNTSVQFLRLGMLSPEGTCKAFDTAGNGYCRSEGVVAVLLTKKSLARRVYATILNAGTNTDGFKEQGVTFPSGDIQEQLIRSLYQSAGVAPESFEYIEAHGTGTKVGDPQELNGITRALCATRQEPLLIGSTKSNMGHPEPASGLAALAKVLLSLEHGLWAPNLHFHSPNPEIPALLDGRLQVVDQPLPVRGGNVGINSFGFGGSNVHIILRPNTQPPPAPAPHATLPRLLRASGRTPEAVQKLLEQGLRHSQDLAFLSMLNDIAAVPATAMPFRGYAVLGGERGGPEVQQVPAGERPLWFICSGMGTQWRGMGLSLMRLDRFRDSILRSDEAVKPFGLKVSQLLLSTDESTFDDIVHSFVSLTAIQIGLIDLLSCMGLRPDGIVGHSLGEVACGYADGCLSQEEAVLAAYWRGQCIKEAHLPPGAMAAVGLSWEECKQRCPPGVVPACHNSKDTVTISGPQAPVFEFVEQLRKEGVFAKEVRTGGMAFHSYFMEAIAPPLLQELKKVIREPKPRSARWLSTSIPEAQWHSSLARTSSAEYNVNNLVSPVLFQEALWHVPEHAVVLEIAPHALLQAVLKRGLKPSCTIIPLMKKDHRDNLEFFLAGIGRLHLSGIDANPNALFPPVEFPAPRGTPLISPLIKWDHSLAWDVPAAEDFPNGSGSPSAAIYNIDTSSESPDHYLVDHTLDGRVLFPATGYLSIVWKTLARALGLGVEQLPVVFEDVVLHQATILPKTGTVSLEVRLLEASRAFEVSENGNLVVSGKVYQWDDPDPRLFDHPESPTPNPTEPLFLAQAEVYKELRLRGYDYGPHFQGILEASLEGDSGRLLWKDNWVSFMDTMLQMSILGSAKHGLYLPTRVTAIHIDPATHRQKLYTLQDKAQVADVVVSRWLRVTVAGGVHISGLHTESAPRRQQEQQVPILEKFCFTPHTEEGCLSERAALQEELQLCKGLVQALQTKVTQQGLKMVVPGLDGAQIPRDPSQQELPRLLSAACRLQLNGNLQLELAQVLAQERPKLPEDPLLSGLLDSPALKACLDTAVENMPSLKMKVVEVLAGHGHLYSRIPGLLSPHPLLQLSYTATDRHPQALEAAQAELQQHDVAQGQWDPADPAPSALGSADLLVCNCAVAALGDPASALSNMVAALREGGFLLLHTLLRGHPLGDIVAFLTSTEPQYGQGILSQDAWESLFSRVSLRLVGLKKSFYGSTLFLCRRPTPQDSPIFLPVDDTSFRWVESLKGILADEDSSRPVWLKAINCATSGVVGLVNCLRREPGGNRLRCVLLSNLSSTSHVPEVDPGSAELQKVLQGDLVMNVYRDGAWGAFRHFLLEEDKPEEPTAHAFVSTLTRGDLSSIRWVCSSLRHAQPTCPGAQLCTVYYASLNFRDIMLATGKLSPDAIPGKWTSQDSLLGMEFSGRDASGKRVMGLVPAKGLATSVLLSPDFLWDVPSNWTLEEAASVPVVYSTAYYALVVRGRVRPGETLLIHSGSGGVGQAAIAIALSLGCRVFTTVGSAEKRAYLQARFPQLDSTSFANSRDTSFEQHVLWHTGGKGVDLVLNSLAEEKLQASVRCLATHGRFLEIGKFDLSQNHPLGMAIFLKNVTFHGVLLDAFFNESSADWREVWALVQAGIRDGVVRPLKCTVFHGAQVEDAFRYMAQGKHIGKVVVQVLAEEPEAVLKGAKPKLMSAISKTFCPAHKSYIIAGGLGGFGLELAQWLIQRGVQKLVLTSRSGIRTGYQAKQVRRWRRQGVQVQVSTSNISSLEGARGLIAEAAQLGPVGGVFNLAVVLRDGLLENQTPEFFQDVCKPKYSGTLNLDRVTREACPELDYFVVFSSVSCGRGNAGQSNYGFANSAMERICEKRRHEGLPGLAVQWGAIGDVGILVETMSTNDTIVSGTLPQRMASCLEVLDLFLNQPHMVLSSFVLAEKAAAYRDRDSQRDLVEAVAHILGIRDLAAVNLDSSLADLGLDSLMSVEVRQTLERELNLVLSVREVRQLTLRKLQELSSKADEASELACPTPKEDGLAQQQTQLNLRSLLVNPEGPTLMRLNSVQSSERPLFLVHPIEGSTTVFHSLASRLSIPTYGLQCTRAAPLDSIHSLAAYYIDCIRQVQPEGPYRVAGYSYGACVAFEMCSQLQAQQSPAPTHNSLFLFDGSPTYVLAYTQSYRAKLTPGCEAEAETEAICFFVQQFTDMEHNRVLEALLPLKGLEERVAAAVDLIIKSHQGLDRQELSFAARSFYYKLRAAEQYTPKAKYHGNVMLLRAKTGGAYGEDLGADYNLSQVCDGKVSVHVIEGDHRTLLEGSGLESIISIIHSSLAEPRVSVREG

Row | Compound | inhibition at 10 µM [%] | IC50 [nM] | Human FASN pIC50 (hFASN enzyme, full length, "~" means standard error of the pIC50 is larger than 0.5)
1 | Cc1sc2ccc(-c3ccc(C4=NC5(CCN(C(=O)CN(C)C)CC5)C(=O)N4C[C@@H]4CCN(C(=O)C5CC5)C4)cc3)cc2c1C [compound 182, 3-{[(3R)-1-(Cyclopropylcarbonyl)pyrrolidin-3-yl]methyl}-2-[4-(2,3-dimethyl-1-benzothiophen-5-yl)phenyl]-8-(N,N-dimethylglycyl)-1,3,8-triazaspiro[4.5]dec-1-en-4-one] | 104 | 138 | –
2 | Cc1sc2ccc(-c3ccc(C4=NC5(CCN(C(=O)C(C)C)CC5)C(=O)N4C[C@@H]4CCN(C(=O)C5CC5)C4)cc3)cc2c1C [compound 183, 3-{[(3R)-1-(Cyclopropylcarbonyl)pyrrolidin-3-yl]methyl}-2-[4-(2,3-dimethyl-1-benzothiophen-5-yl)phenyl]-8-(2-methylpropanoyl)-1,3,8-triazaspiro[4.5]dec-1-en-4-one] | 109 | 138 | –
3 | Cc1sc2ccc(-c3ccc(C4=NC5(CCN(C(C)C)CC5)C(=O)N4C[C@@H]4CCN(C(=O)C5CC5)C4)cc3)cc2c1C [compound 184, 3-{[(3R)-1-(Cyclopropylcarbonyl)pyrrolidin-3-yl]methyl}-2-[4-(2,3-dimethyl-1-benzothiophen-5-yl)phenyl]-8-(1-methylethyl)-1,3,8-triazaspiro[4.5]dec-1-en-4-one] | 107 | 437 | –
4 | Cc1cc2cc(-c3ccc(C4=NC5(CCN(C(C)C)CC5)C(=O)N4C[C@@H]4CCN(C(=O)C5CC5)C4)cc3)ccc2o1 [compound 186, 3-{[(3R)-1-(Cyclopropylcarbonyl)pyrrolidin-3-yl]methyl}-2-[4-(2-methyl-1-benzofuran-5-yl)phenyl]-8-(1-methylethyl)-1,3,8-triazaspiro[4.5]dec-1-en-4-one] | 80.4 | 1550 | –
5 | CC(C)N1CCC2(CC1)N=C(c1ccc(-c3ccc4[nH]ccc4c3)cc1)N(CC1CN(C(=O)C3CC3)C1)C2=O [compound 187, 3-{[1-(Cyclopropylcarbonyl)azetidin-3-yl]methyl}-2-[4-(1H-indol-5-yl)phenyl]-8-(1-methylethyl)-1,3,8-triazaspiro[4.5]dec-1-en-4-one] | 96.5 | 603 | –
6 | CC(C)N1CCC2(CC1)N=C(c1ccc(-c3ccc4[nH]ncc4c3)cc1)N(CC1CN(C(=O)C3CC3)C1)C2=O [compound 188, 3-{[1-(Cyclopropylcarbonyl)azetidin-3-yl]methyl}-2-[4-(1H-indazol-5-yl)phenyl]-8-(1-methylethyl)-1,3,8-triazaspiro[4.5]dec-1-en-4-one] | 50.4 | ~10000 | –
7 | O=C1N(C[C@@H]2CCN(S(=O)(=O)N3CCCC3)C2)C(c2ccc(-c3ccc4occc4c3)cc2)=NC12CCCC2 [compound 189, 2-[4-(1-Benzofuran-5-yl)phenyl]-3-{[(3S)-1-(pyrrolidin-1-ylsulfonyl)pyrrolidin-3-yl]methyl}-1,3-diazaspiro[4.4]non-1-en-4-one] | 16.7 | > 10000 | –
8 | O=C([C@@H]1CCCO1)N1CC[C@@H](CN2C(=O)C3(CCCC3)N=C2c2ccc(-c3ccc4occc4c3)cc2)C1 [compound 190, 2-(4-(Benzofuran-5-yl)phenyl)-3-(((R)-1-((S)-tetrahydro-furan-2-carbonyl)pyrrolidin-3-yl)methyl)-1,3-diazaspiro[4.4]non-1-en-4-one] | 105 | 295 | –
9 | O=C([C@H]1CCCO1)N1CC[C@@H](CN2C(=O)C3(CCCC3)N=C2c2ccc(-c3ccc4occc4c3)cc2)C1 [compound 191, 2-[4-(1-Benzofuran-5-yl)phenyl]-3-({(3R)-1-[(2R)-tetrahydro-furan-2-ylcarbonyl]pyrrolidin-3-yl}methyl)-1,3-diazaspiro[4.4]non-1-en-4-one] | 108 | 79.4 | –
10 | N#CC1(C(=O)N2CC[C@@H](CN3C(=O)C4(CCCC4)N=C3c3ccc(-c4ccc5occc5c4)cc3)C2)CC1 [compound 192, 1-{[(3R)-3-({2-[4-(1-Benzofuran-5-yl)phenyl]-4-oxo-1,3-diazaspiro[4.4]non-1-en-3-yl}methyl)pyrrolidin-1-yl]carbonyl}cyclopropancarbonitrile] | 94.3 | 589 | –
11 | O=C(C1CC1)N1CCC[C@@H](CN2C(=O)C3(CC3)N=C2c2ccc(-c3ccc4[nH]ncc4c3)cc2)C1 [compound 389, 6-{[(3R)-1-(Cyclopropylcarbonyl)piperidin-3-yl]methyl}-5-[4-(1H-indazol-5-yl)phenyl]-4,6-diazaspiro[2.4]hept-4-en-7-one] | 56 | 7240 | –
12 | Cc1cc(C2=NC3(CC3)C(=O)N2CC2CN(C(=O)C3CC3)C2)ccc1-c1ccc2occc2c1 [compound 393, 5-[4-(1-Benzofuran-5-yl)-3-methylphenyl]-6-{[1-(cyclopropylcarbonyl)azetidin-3-yl]methyl}-4,6-diazaspiro[2.4]hept-4-en-7-one] | 62 | ~2880 | –
13 | O=C(C1CC1)N1CCC[C@@H](CN2C(=O)C3(CC3)N=C2c2ccc(-c3ccc4sccc4c3)cc2)C1 [compound 394, 5-[4-(1-Benzothiophen-5-yl)phenyl]-6-{[(3R)-1-(cyclopropylcarbonyl)piperidin-3-yl]methyl}-4,6-diazaspiro[2.4]hept-4-en-7-one] | 84 | 1070 | –
14 | O=C(C1CC1)N1CCC[C@@H](CN2C(=O)C3(CC3)N=C2c2ccc(-c3ccc4occc4c3)cc2)C1 [compound 395, 5-[4-(1-Benzofuran-5-yl)phenyl]-6-{[(3R)-1-(cyclopropylcarbonyl)piperidin-3-yl]methyl}-4,6-diazaspiro[2.4]hept-4-en-7-one] | 54 | 6310 | –
15 | COC(=O)c1cccc(-c2ccc(C3=NC4(CC4)C(=O)N3C[C@@H]3CCN(C(=O)C4CC4)C3)cc2)c1 [compound 401, Methyl 4′-(6-{[(3R)-1-(cyclopropylcarbonyl)pyrrolidin-3-yl]methyl}-7-oxo-4,6-diazaspiro[2.4]hept-4-en-5-yl)biphenyl-3-carboxylate] | 70 | 3720 | –
16 | Cn1nccc1-c1ccc(-c2ccc(C3=NC4(CC4)C(=O)N3C[C@@H]3CCN(C(=O)C4CC4)C3)cc2)cc1 [compound 407, 6-{[(3R)-1-(Cyclopropylcarbonyl)pyrrolidin-3-yl]methyl}-5-[4′-(1-methyl-1H-pyrazol-5-yl)biphenyl-4-yl]-4,6-diazaspiro[2.4]hept-4-en-7-one] | 69 | 2340 | –
17 | O=C(C1CC1)N1CC[C@H](CN2C(=O)C3(CC3)N=C2c2ccc(-c3ccc(O)cc3)cc2)C1 [compound 408, 6-{[(3S)-1-(Cyclopropylcarbonyl)pyrrolidin-3-yl]methyl}-5-(4′-hydroxybiphenyl-4-yl)-4,6-diazaspiro[2.4]hept-4-en-7-one] | 63 | 5130 | –

Now from value to compound:

Row | inhibition at 10 µM [%] | IC50 [nM] | Human FASN pIC50 (hFASN enzyme, full length, "~" means standard error of the pIC50 is larger than 0.5) | Compound
18 | 80 | 1260 | – | O=C(C1CC1)N1CC(CN2C(=O)C3(CC3)N=C2c2ccc(-c3ccc4occc4c3)c(F)c2)C1 [compound 415]
19 | 76 | ~1780 | – | Cc1cc2cc(-c3ccc(C4=NC5(CC5)C(=O)N4CC4CN(C(=O)C5CC5)C4)cc3F)ccc2o1 [compound 416, 6-{[1-(Cyclopropylcarbonyl)azetidin-3-yl]methyl}-5-[3-fluoro-4-(2-methyl-1-benzofuran-5-yl)phenyl]-4,6-diazaspiro[2.4]hept-4-en-7-one]
20 | 62 | 5250 | – | Cc1oc2ccc(-c3ccc(C4=NC5(CC5)C(=O)N4CC4CN(C(=O)C5CC5)C4)cc3F)cc2c1C [compound 417, 6-{[1-(Cyclopropylcarbonyl)azetidin-3-yl]methyl}-5-[4-(2,3-dimethyl-1-benzofuran-5-yl)-3-fluorophenyl]-4,6-diazaspiro[2.4]hept-4-en-7-one]
21 | 70 | 3310 | – | O=C(C1CC1)N1CC[C@@H](CN2C(=O)C3(CC3)N=C2c2ccc(-c3ccc4occc4c3)s2)C1 [compound 422, 5-[5-(1-Benzofuran-5-yl)thiophen-2-yl]-6-{[(3R)-1-(cyclopropylcarbonyl)pyrrolidin-3-yl]methyl}-4,6-diazaspiro[2.4]hept-4-en-7-one]
22 | 68 | 3980 | – | O=C(C1CC1)N1CC[C@@H](CN2C(=O)C3(CC3)N=C2c2ccc(-c3ccc4[nH]ncc4c3)s2)C1 [compound 424, 6-{[(3R)-1-(Cyclopropylcarbonyl)pyrrolidin-3-yl]methyl}-5-[5-(1H-indazol-5-yl)thiophen-2-yl]-4,6-diazaspiro[2.4]hept-4-en-7-one]
23 | 52 | – | 5.05 | Cn1ncc2cc(-c3ccc(C4=NC5(CC5)C(=O)N4C[C@@H]4CCN(C(=O)C5CC5)C4)s3)ccc21 [compound 430, 6-{[(3R)-1-(Cyclopropylcarbonyl)pyrrolidin-3-yl]methyl}-5-[5-(1-methyl-1H-indazol-5-yl)thiophen-2-yl]-4,6-diazaspiro[2.4]hept-4-en-7-one]
24 | 72 | 1820 | – | Cc1cc2cc(-c3ccc(C4=NC5(CC5)C(=O)N4CC4CN(C(=O)C5CC5)C4)cc3F)ccc2s1 [compound 433, 6-{[1-(Cyclopropylcarbonyl)azetidin-3-yl]methyl}-5-[3-fluoro-4-(2-methyl-1-benzothiophen-5-yl)phenyl]-4,6-diazaspiro[2.4]hept-4-en-7-one]
25 | 73 | 2040 | – | Cc1sc2ccc(-c3ccc(C4=NC5(CC5)C(=O)N4CC4CN(C(=O)C5CC5)C4)cc3F)cc2c1C [compound 434, 6-{[1-(Cyclopropylcarbonyl)azetidin-3-yl]methyl}-5-[4-(2,3-dimethyl-1-benzothiophen-5-yl)-3-fluorophenyl]-4,6-diazaspiro[2.4]hept-4-en-7-one]
